# Assay results reported in patent EP4800012A1, “COMPOUND ACTING AS PARP7 INHIBITOR” (Dovetree Medicines Unus, Inc., priority 2023, dated 2025).
# What was measured:
# [1] = molecular target: PARP2 (Homo sapiens, UniProt Q9UGN5); experiment: PARP2 in vitro enzyme activity inhibition (chemiluminescence assay); format: biochemical; conditions: 5 nM of PARP2, method of test example 1; read-out: PARP2 activity inhibition IC50
# Protocol: (§1) Following the method in test example 1, the IC50 value of the inhibition of each compound on PARP7 activity were detected and obtained. Reference was made to the method in test example 1, except that the 6.25 nM of PARP7 solution in the ribosylation reaction step was replaced with a 5 nM of PARP1 solution or a 5 nM of PARP2. Similar to the 6.25 nM of PARP7 solution, the 5 nM of PARP1 solution and 5 nM of PARP2 solution were also formulated and obtained by using 1× Assay buffer.
# [2] = molecular target: T1, PARP7 (Homo sapiens, UniProt Q7Z3E1); experiment: Inhibition of the compound on PARP7 protein activity (ADP-ribosylation, chemiluminescence); format: biochemical; conditions: Histone H1 coated plate, Biotin-Labeled NAD+, 2 h at room temperature, chemiluminescence; read-out: PARP7 activity inhibition IC50
# T1 construct: purchased BPS 80527
# T1 sequence (Q7Z3E1 1-657): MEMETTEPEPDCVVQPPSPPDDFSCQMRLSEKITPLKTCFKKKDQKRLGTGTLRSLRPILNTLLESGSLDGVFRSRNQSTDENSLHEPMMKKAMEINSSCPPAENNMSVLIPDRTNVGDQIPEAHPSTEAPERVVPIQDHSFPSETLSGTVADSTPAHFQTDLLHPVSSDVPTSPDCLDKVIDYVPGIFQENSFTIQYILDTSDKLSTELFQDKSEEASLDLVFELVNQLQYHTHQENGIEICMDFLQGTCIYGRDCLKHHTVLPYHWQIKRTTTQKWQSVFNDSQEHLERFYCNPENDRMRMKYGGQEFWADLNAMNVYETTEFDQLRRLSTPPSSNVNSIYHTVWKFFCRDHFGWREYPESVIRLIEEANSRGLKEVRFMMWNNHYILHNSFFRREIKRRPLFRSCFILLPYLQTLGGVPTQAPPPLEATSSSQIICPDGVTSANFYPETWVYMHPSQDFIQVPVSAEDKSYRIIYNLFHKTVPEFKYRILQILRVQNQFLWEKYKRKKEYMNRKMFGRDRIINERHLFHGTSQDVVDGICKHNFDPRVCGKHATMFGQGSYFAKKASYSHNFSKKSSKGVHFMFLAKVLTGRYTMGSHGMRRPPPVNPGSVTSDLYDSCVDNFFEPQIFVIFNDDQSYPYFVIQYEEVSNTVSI
# [3] = molecular target: PARP1 (Homo sapiens, UniProt P09874); experiment: PARP1 in vitro enzyme activity inhibition (chemiluminescence assay); format: biochemical; conditions: 5 nM of PARP1 solution, method of test example 1; read-out: PARP1 activity inhibition IC50
# Protocol: as §1
# [4] = test system: NCI-H1373 cells; experiment: Inhibition on NCI-H1373 cell proliferation (Cell-Titer-Glo); format: cell-based; conditions: Homo sapiens, 144 h; NCI-H1373 cells, incubation for 6 days, Cell-Titer-Glo; read-out: NCI-H1373 cell proliferation inhibition IC50
# [5] = molecular target: T1, PARP7; experiment: PARP7 TR-FRET binding inhibition (displacement of probe RBN011147); conditions: TR-FRET, Biotin-labeled probe RBN011147; read-out: PARP7 binding inhibition IC50
# Protocol: The ability of the compound to substitute the probe RBN011147 (Wigle et al., 2020, Cell Chemical Biology 27, 877-887) was tested by a TR-FRET method, and IC50 was calculated to evaluate the binding ability of the compound to PARP7. […]
# [6] = molecular target: T1, PARP7; experiment: PARP7 in vitro enzyme activity inhibition (chemiluminescence assay, selectivity test); format: biochemical; conditions: 6.25 nM of PARP7 solution, method of test example 1; read-out: PARP7 activity inhibition IC50
# Protocol: as §1
# Sequence of PARP1 (P09874 whole entry, species assumed): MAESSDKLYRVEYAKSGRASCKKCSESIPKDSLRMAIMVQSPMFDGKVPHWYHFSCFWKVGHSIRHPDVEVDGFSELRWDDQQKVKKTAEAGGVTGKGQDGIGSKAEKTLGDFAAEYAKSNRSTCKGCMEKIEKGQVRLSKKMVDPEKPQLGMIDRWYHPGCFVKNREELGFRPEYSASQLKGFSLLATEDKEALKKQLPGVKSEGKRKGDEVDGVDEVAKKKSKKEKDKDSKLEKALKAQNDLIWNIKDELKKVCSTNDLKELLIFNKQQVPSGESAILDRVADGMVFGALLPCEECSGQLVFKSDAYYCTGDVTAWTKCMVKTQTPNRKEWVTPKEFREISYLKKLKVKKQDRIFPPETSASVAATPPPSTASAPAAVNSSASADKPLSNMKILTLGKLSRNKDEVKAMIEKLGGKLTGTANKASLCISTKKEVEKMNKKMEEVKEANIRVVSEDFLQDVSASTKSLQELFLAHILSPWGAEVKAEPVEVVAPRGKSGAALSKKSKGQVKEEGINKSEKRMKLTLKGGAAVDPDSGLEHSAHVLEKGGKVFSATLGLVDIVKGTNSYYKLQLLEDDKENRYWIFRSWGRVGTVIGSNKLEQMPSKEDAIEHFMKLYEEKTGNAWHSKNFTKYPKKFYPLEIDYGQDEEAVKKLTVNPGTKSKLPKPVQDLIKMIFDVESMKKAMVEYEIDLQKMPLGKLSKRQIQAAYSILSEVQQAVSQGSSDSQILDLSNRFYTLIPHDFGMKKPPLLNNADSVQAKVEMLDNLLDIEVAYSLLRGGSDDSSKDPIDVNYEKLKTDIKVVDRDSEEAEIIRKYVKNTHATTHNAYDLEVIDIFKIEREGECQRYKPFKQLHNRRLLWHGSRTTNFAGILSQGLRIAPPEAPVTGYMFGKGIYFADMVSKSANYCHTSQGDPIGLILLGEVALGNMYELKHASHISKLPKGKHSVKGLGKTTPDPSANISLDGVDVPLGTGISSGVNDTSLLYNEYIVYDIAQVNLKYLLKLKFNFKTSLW
# Sequence of PARP2 (Q9UGN5 whole entry, species assumed): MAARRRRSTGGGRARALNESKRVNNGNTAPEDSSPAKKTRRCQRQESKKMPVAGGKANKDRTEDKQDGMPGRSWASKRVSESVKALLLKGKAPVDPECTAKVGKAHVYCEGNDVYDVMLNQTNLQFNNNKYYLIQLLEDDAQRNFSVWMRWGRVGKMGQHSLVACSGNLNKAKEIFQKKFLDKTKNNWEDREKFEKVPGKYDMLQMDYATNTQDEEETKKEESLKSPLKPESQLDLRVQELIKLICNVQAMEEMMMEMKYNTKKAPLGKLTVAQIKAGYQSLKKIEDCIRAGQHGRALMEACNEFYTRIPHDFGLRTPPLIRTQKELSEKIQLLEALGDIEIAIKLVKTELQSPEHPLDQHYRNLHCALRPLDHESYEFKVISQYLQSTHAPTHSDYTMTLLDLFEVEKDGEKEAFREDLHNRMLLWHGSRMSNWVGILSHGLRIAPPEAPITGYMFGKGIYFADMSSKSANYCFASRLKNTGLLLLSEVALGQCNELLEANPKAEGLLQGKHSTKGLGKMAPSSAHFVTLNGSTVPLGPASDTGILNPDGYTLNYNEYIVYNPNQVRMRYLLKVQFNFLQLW
SMILES,IC50 [1],IC50 [2],IC50 [3],IC50 [4],IC50 [5],IC50 [6]
O=C(NCCCC(Nc1cn[nH]c(=O)c1C(F)(F)F)C(=O)N1CCCC1)c1ccc(-c2ncc(C(F)(F)F)s2)cc1 (stereo not drawn) [Example 86],3 to 10 nM,< 3 nM,10 to 30 nM,< 300 nM,< 10 nM,< 3 nM
O=C(NCCCC(Nc1cn[nH]c(=O)c1C(F)(F)F)C(=O)N1CC2(CCC2)C1)c1cnc(-c2ncc(C(F)(F)F)cn2)cn1 (stereo not drawn) [Example 87],10 to 30 nM,< 3 nM,30 to 100 nM,< 300 nM,10 to 30 nM,< 3 nM
O=C(NCCCC(Nc1cn[nH]c(=O)c1C(F)(F)F)C(=O)N1CCOCC1)c1ccc(-c2ncc(C(F)(F)F)s2)cc1 (stereo not drawn) [Example 88],3 to 10 nM,< 3 nM,30 to 100 nM,300 to 1000 nM,< 10 nM,< 3 nM
O=C(NCCCC(Nc1cn[nH]c(=O)c1C(F)(F)F)C(=O)N1CCCC1)c1cnc(-c2ncc(C(F)(F)F)cn2)cn1 (stereo not drawn) [Example 89],10 to 30 nM,< 3 nM,30 to 100 nM,300 to 1000 nM,< 10 nM,< 3 nM
O=C(NCCCC(Nc1cn[nH]c(=O)c1C(F)(F)F)C(=O)N1CCOCC1)c1cnc(-c2ncc(C(F)(F)F)cn2)cn1 (stereo not drawn) [Example 90],30 to 100 nM,< 3 nM,30 to 100 nM,> 3000 nM,30 to 100 nM,< 3 nM
O=C(NCCc1n[nH]c(=O)c(C(F)(F)F)c1N1CC2(CCC2)C1)c1cnc(-c2ncc(C(F)(F)F)cn2)cn1 [Example 166],> 100 nM,3 to 10 nM,> 100 nM,> 3000 nM,> 100 nM,3 to 10 nM
CC1(C)CN(C(=O)C(CCCNC(=O)c2cnc(-c3ncc(C(F)(F)F)cn3)cn2)Nc2cn[nH]c(=O)c2C(F)(F)F)C1 (stereo not drawn) [Example 174],3 to 10 nM,3 to 10 nM,30 to 100 nM,> 3000 nM,10 to 30 nM,3 to 10 nM
CC(C)(C)NC(=O)[C@@H](CCCNC(=O)c1ccc(-c2ncc(C(F)(F)F)s2)cc1)Nc1cn[nH]c(=O)c1C(F)(F)F [Example 221],3 to 10 nM,< 3 nM,> 100 nM,< 300 nM,< 10 nM,< 3 nM
O=C(NCCC[C@@H](Nc1cn[nH]c(=O)c1C(F)(F)F)C(=O)N1CC[C@@H](F)C1)c1ccc(-c2ncc(C(F)(F)F)s2)cc1 [Example 222],< 3 nM,< 3 nM,10 to 30 nM,< 300 nM,< 10 nM,< 3 nM
CN(C(=O)[C@@H](CCCNC(=O)c1ccc(-c2ncc(C(F)(F)F)s2)cc1)Nc1cn[nH]c(=O)c1C(F)(F)F)C1CC1 [Example 223],30 to 100 nM,3 to 10 nM,3 to 10 nM,< 300 nM,< 10 nM,3 to 10 nM
O=C(NCCC[C@@H](Nc1cn[nH]c(=O)c1C(F)(F)F)C(=O)N1CC(Cl)C1)c1ccc(-c2ncc(C(F)(F)F)s2)cc1 [Example 224],10 to 30 nM,< 3 nM,3 to 10 nM,< 300 nM,< 10 nM,< 3 nM
O=C(NCCC[C@@H](Nc1cn[nH]c(=O)c1C(F)(F)F)C(=O)NC1CCC1)c1ccc(-c2ncc(C(F)(F)F)s2)cc1 [Example 228],3 to 10 nM,3 to 10 nM,> 100 nM,< 300 nM,< 10 nM,3 to 10 nM
CNC(=O)[C@@H](CCCNC(=O)c1ccc(-c2ncc(C(F)(F)F)s2)cc1)Nc1cn[nH]c(=O)c1C(F)(F)F [Example 229],10 to 30 nM,< 3 nM,30 to 100 nM,< 300 nM,10 to 30 nM,< 3 nM
CN(C(=O)[C@@H](CCCNC(=O)c1ccc(-c2ncc(C(F)(F)F)s2)cc1)Nc1cn[nH]c(=O)c1C(F)(F)F)C1CCC1 [Example 230],3 to 10 nM,3 to 10 nM,30 to 100 nM,< 300 nM,30 to 100 nM,3 to 10 nM
CCNC(=O)C(CCCNC(=O)c1ccc(-c2ncc(C(F)(F)F)s2)cc1)Nc1cn[nH]c(=O)c1C(F)(F)F (stereo not drawn) [Example 231],3 to 10 nM,< 3 nM,10 to 30 nM,< 300 nM,< 10 nM,< 3 nM
C[C@H]1CCN(C(=O)[C@@H](CCCNC(=O)c2ccc(-c3ncc(C(F)(F)F)s3)cc2)Nc2cn[nH]c(=O)c2C(F)(F)F)C1 [Example 232],3 to 10 nM,< 3 nM,3 to 10 nM,300 to 1000 nM,10 to 30 nM,< 3 nM
CC1CN(C(=O)[C@@H](CCCNC(=O)c2ccc(-c3ncc(C(F)(F)F)s3)cc2)Nc2cn[nH]c(=O)c2C(F)(F)F)C1 [Example 233],< 3 nM,< 3 nM,3 to 10 nM,300 to 1000 nM,< 10 nM,< 3 nM
O=C(NCCCC(Nc1cn[nH]c(=O)c1C(F)(F)F)C(=O)NC1CCCOC1)c1ccc(-c2ncc(C(F)(F)F)s2)cc1 (stereo not drawn) [Example 235],3 to 10 nM,< 3 nM,3 to 10 nM,300 to 1000 nM,< 10 nM,< 3 nM
CO[C@H]1CCN(C(=O)[C@@H](CCCNC(=O)c2ccc(-c3ncc(C(F)(F)F)s3)cc2)Nc2cn[nH]c(=O)c2C(F)(F)F)C1 [Example 237],3 to 10 nM,< 3 nM,10 to 30 nM,300 to 1000 nM,< 10 nM,< 3 nM
C[C@@H]1COCCN1C(=O)[C@@H](CCCNC(=O)c1ccc(-c2ncc(C(F)(F)F)s2)cc1)Nc1cn[nH]c(=O)c1C(F)(F)F [Example 238],10 to 30 nM,< 3 nM,30 to 100 nM,300 to 1000 nM,< 10 nM,< 3 nM
N#C[C@@H]1CCN(C(=O)[C@@H](CCCNC(=O)c2ccc(-c3ncc(C(F)(F)F)s3)cc2)Nc2cn[nH]c(=O)c2C(F)(F)F)C1 [Example 239],> 100 nM,< 3 nM,10 to 30 nM,300 to 1000 nM,10 to 30 nM,< 3 nM
O=C(NCCC[C@@H](Nc1cn[nH]c(=O)c1C(F)(F)F)C(=O)N1CC[C@H](F)C1)c1ccc(-c2ncc(C(F)(F)F)s2)cc1 [Example 241],3 to 10 nM,< 3 nM,10 to 30 nM,1000 to 3000 nM,10 to 30 nM,< 3 nM
CC1(F)CN(C(=O)[C@@H](CCCNC(=O)c2ccc(-c3ncc(C(F)(F)F)s3)cc2)Nc2cn[nH]c(=O)c2C(F)(F)F)C1 [Example 242],3 to 10 nM,3 to 10 nM,30 to 100 nM,1000 to 3000 nM,10 to 30 nM,3 to 10 nM
N#CC1CCN(C(=O)[C@@H](CCCNC(=O)c2ccc(-c3ncc(C(F)(F)F)s3)cc2)Nc2cn[nH]c(=O)c2C(F)(F)F)CC1 [Example 243],3 to 10 nM,< 3 nM,3 to 10 nM,> 3000 nM,< 10 nM,< 3 nM
O=C(NCCC[C@@H](Nc1cn[nH]c(=O)c1C(F)(F)F)C(=O)Nc1ccccn1)c1ccc(-c2ncc(C(F)(F)F)s2)cc1 [Example 244],30 to 100 nM,< 3 nM,3 to 10 nM,> 3000 nM,30 to 100 nM,< 3 nM
COC1(C)CN(C(=O)[C@@H](CCCNC(=O)c2ccc(-c3ncc(C(F)(F)F)s3)cc2)Nc2cn[nH]c(=O)c2C(F)(F)F)C1 [Example 246],3 to 10 nM,< 3 nM,10 to 30 nM,1000 to 3000 nM,< 10 nM,< 3 nM
